Laboratory results: US20250236608A1, “EGFR INHIBITORS” (Blueprint Medicines Corporation, priority 2022, published 2025)

Columns and labels:
[1] = biological target: pEGFR (Tyr1068) in PC-9 cells (Ex19Del) (Homo sapiens (Human), UniProt P00533, DEL746-750); assay: PC-9 pEGFR AlphaLISA assay; format: cell-based; conditions: 4 hours incubation, p-EGFR (Tyr1068) AlphaLISA, read-out: Ext pEGFR_PC-9 Ex19Del IC50
Procedure, shortened: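 Compounds are added in ten 4-fold dilutions to adherent cells grown in serum-containing (10% FBS) phenol-free DMEM and left for 4 hours at 37° C. Phosphorylated receptor in lysates is quantified by bead-based AlphaLISA. IC50 values derive from inhibition plotted against log dose.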

EGFR (d746-750) = EGFR (d746-750) (Homo sapiens (Human), UniProt P00533, DEL746-750); assay: Biochemical EGFR inhibition assay, EGFR (d746-750); conditions: Caliper mobility shift; 1.0 mM ATP or ATP Km; read-out: Enz EGFR_Exon19-del746-750 IC50
EGFR (d746-750), sequence (P00533 other isoform, or with tags, fused parts or gaps del 1-694/del 746-750 limits assumed): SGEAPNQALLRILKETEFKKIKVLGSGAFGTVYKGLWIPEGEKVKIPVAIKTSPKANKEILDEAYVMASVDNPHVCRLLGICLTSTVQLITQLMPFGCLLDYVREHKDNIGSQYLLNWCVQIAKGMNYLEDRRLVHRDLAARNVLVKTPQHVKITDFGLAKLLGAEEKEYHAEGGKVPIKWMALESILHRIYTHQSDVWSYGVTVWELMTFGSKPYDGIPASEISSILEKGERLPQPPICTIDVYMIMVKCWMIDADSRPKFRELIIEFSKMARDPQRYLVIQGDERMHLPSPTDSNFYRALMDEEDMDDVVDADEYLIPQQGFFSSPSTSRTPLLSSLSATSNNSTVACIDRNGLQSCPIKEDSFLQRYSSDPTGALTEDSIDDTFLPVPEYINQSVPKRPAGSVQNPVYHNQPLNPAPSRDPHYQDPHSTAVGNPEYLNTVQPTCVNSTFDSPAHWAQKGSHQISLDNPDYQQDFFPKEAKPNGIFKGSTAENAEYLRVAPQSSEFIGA

EGFR L858R = EGFR L858R (Homo sapiens (Human), UniProt P00533, L858R); assay: Biochemical EGFR inhibition assay, EGFR L858R; conditions: Caliper mobility shift; 1.0 mM ATP or ATP Km; read-out: Enz EGFR_L858R IC50
EGFR L858R, sequence (P00533 25-1210 L858R): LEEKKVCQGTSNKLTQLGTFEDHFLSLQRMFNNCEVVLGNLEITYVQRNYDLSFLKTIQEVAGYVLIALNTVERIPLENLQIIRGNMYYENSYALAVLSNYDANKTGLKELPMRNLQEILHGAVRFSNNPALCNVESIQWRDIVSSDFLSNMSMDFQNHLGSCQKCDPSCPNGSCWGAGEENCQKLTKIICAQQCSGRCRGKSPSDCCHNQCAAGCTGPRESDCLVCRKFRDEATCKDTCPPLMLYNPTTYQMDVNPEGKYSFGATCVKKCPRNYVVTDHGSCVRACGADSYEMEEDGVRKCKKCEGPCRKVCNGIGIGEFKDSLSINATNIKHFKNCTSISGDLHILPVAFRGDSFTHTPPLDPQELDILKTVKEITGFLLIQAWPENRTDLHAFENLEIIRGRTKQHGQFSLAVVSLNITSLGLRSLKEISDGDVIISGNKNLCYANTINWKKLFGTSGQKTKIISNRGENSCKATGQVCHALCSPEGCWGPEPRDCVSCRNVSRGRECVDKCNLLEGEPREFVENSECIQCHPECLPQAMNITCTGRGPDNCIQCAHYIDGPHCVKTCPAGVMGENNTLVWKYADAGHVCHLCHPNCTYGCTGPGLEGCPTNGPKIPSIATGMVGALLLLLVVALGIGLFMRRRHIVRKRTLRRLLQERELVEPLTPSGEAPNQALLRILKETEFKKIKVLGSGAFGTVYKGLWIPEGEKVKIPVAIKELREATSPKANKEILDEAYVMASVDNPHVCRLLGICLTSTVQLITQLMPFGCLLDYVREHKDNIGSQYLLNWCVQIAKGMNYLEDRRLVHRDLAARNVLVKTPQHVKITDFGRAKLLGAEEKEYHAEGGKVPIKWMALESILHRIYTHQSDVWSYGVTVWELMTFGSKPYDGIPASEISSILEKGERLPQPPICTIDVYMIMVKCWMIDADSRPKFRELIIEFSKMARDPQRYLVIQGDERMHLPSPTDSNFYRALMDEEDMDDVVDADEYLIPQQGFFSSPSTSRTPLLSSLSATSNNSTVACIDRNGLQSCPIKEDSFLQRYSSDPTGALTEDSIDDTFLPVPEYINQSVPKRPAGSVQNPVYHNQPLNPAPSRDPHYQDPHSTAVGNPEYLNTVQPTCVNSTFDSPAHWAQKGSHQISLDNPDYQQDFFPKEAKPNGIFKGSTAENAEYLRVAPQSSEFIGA

pEGFR (Tyr1068) in PC-9 cells (Ex19Del), sequence (P00533 other isoform, or with tags, fused parts or gaps del 746-750): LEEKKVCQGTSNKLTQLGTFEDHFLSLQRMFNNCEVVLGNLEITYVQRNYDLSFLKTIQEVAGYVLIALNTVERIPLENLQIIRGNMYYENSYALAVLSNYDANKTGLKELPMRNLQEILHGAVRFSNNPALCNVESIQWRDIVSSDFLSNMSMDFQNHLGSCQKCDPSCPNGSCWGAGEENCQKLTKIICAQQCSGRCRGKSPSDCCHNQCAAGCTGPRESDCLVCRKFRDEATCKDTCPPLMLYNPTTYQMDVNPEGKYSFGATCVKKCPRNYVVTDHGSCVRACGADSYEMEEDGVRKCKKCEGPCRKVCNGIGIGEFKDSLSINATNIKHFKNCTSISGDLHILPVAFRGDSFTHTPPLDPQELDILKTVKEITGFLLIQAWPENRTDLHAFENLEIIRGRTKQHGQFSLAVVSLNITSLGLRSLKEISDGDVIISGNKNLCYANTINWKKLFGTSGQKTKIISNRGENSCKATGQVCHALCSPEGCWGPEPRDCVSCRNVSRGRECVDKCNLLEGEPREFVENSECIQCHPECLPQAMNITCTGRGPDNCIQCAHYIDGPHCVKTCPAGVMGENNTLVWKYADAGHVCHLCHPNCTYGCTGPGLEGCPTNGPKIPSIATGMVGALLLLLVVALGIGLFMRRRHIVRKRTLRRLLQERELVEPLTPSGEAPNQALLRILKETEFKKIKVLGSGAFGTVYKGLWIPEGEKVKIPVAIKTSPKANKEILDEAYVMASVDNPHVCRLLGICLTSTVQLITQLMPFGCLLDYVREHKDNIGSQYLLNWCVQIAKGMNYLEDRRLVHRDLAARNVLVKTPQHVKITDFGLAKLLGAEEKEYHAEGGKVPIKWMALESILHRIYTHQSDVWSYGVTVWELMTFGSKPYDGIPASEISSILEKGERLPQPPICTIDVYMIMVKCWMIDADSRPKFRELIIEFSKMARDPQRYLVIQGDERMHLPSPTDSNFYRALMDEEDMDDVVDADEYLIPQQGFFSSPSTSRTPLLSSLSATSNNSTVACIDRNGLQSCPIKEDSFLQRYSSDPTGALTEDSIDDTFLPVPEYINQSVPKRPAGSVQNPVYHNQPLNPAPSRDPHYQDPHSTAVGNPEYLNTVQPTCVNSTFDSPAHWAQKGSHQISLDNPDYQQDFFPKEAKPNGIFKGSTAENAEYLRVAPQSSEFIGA

| SMILES | IC50 [1] [nM] | IC50 (EGFR (d746-750)) [nM] | IC50 (EGFR L858R) [nM] |
| --- | --- | --- | --- |
| COc1cc2ncnc(-c3cn(C)nc3-c3ccccc3)c2cc1NC(=O)c1ccc(F)cc1 [Example 222, 4-fluoro-N-(7-methoxy-4-(1-methyl-3-phenyl-1H-pyrazol-4-yl)quinazolin-6-yl)benzamide] | 1.5 | 0.9 | 1.5 |
| COc1cc2ncnc(-c3cn(C)nc3-c3ccc(F)cc3)c2nc1NC(=O)[C@]12COC[C@H]1C2 (single isomer, unassigned) [Example 381, (1S,5S)—N-(4-(3-(4-fluorophenyl)-1-methyl-1H-pyrazol-4-yl)-7-methoxypyrido[3,2-d]pyrimidin-6-yl)-3-oxabicyclo[3.1.0]hexane-1-carboxamide or (1R,5R)—N-(4-(3-(4-fluorophenyl)-1-methyl-1H-pyrazol-4-yl)-7-methoxypyrido[3,2-d]pyrimidin-6-yl)-3-oxabicyclo[3.1.0]hexane-1-carboxamide] | 1.4 | 0.7 | 1.9 |
| CCOc1cc2ncnc(-c3cn(CC)nc3-c3ccccc3)c2cc1N1CCOCC1 [Example 170, 4-(7-ethoxy-4-(1-ethyl-3-phenyl-1H-pyrazol-4-yl)quinazolin-6-yl)morpholine] | 1.2 | 0.9 | 2 |
| COc1cc2ncnc(-c3cn(C)nc3-c3ccccc3)c2nc1O[C@H](C)c1cocn1 [Example 40, (R)-4-(1-((7-methoxy-4-(1-methyl-3-phenyl-1H-pyrazol-4-yl)pyrido[3,2-d]pyrimidin-6-yl)oxy)ethyl) oxazole] | 1.5 | 2.9 | 4.2 |
| COc1cc2ncnc(-c3cn(CC(F)F)nc3-c3ccccc3)c2cc1[C@H](C)O (single isomer, unassigned) [Example 101, (S)-1-(4-(1-(2,2-difluoroethyl)-3-phenyl-1H-pyrazol-4-yl)-7-methoxyquinazolin-6-yl)ethan-1-ol or (R)-1-(4-(1-(2,2-difluoroethyl)-3-phenyl-1H-pyrazol-4-yl)-7-methoxyquinazolin-6-yl)ethan-1-ol] | 5.7 | 1.9 | 3.2 |
| COc1cc2ncnc(-c3cn(C)nc3-c3ccccc3)c2cc1OC(=O)N1CCO[C@@H](C)[C@@H]1C [Example 72, 7-methoxy-4-(1-methyl-3-phenyl-1H-pyrazol-4-yl)quinazolin-6-yl (2S,3S)-2,3-dimethylmorpholine-4-carboxylate] | 5.1 | 1.7 | 3.8 |
| COc1cc2ncnc(-c3cn(C)nc3-c3ccccc3)c2nc1O[C@@H](C)c1nnc(C)s1 (single isomer, unassigned) [Example 51, (S)-2-(1-((7-methoxy-4-(1-methyl-3-phenyl-1H-pyrazol-4-yl)pyrido[3,2-d]pyrimidin-6-yl)oxy)ethyl)-5-methyl-1,3,4-thiadiazole or (R)-2-(1-((7-methoxy-4-(1-methyl-3-phenyl-1H-pyrazol-4-yl)pyrido[3,2-d]pyrimidin-6-yl)oxy)ethyl)-5-methyl-1,3,4-thiadiazole] | 30.6 | 5.3 | 6.9 |
| CCn1cc(-c2ncnc3cc(OC)c(N4CCOCC4)cc23)c(-c2ccccc2)n1 [Example 169, 4-(4-(1-ethyl-3-phenyl-1H-pyrazol-4-yl)-7-methoxyquinazolin-6-yl)morpholine] | 1.9 | 0.9 | 1.7 |
| CCC(=O)Nc1cc2c(-c3cn(C4CCOCC4)nc3-c3ccccc3)ncnc2cc1OC [Example 248, N-(7-methoxy-4-(3-phenyl-1-(tetrahydro-2H-pyran-4-yl)-1H-pyrazol-4-yl)quinazolin-6-yl)propionamide] | 1.3 | 1.5 | 2 |
| COc1cc2ncnc(-c3cn(C)nc3-c3ccccc3)c2cc1NC(=O)c1cnc(C)s1 [Example 206, N-(7-methoxy-4-(1-methyl-3-phenyl-1H-pyrazol-4-yl)quinazolin-6-yl)-2-methylthiazole-5-carboxamide] | 0.5 | 0.4 | 0.8 |
| CC(C)Oc1cc2ncnc(-c3cn(C)nc3-c3ccccc3)c2cc1[C@H](C)O (single isomer, unassigned) [Example 113, (S)-1-(7-isopropoxy-4-(1-methyl-3-phenyl-1H-pyrazol-4-yl)quinazolin-6-yl)ethan-1-ol or (R)-1-(7-isopropoxy-4-(1-methyl-3-phenyl-1H-pyrazol-4-yl)quinazolin-6-yl)ethan-1-ol] | 11.2 | 2.4 | 5.5 |
| CCOc1cc2ncnc(-c3cn(C)nc3-c3ccccc3)c2cc1NC(=O)[C@@]12C[C@@H]1CN(C)C2 (single isomer, unassigned) [Example 256, (1S,5S)—N-(7-ethoxy-4-(1-methyl-3-phenyl-1H-pyrazol-4-yl)quinazolin-6-yl)-3-methyl-3-azabicyclo[3.1.0]hexane-1-carboxamide or (1R,5R)—N-(7-ethoxy-4-(1-methyl-3-phenyl-1H-pyrazol-4-yl)quinazolin-6-yl)-3-methyl-3-azabicyclo[3.1.0]hexane-1-carboxamide] | 2 | 0.4 | 0.8 |

More lines, now with the values ahead:

| IC50 [1] [nM] | IC50 (EGFR (d746-750)) [nM] | IC50 (EGFR L858R) [nM] | SMILES |
| --- | --- | --- | --- |
| 13 | 1.2 | 4.5 | COc1cc2ncnc(-c3cn(C)nc3-c3ccccc3)c2cc1NC(=O)[C@H]1C[C@@H]1C(F)(F)F [Example 287, (1S,2S)—N-(7-methoxy-4-(1-methyl-3-phenyl-1H-pyrazol-4-yl)quinazolin-6-yl)-2-(trifluoromethyl)cyclopropane-1-carboxamide] |
| 1.5 | 0.9 | 1.3 | CCOc1cc2ncnc(-c3cn(C)nc3-c3ccccc3)c2cc1NC(=O)[C@@]12COC[C@@H]1C2 [Example 290, (1R,5R)—N-(7-ethoxy-4-(1-methyl-3-phenyl-1H-pyrazol-4-yl)quinazolin-6-yl)-3-oxabicyclo[3.1.0]hexane-1-carboxamide] |
| 6.5 | 1.8 | 3.3 | Cn1cc(-c2ncnc3cc(OC(F)F)c(NC(=O)C4CC4)cc23)c(-c2ccccc2)n1 [Example 279, N-(7-(difluoromethoxy)-4-(1-methyl-3-phenyl-1H-pyrazol-4-yl)quinazolin-6-yl)cyclopropanecarboxamide] |
| 2.3 | 1.2 | 1.9 | COc1cc2ncnc(-c3cn(C)nc3-c3c(F)cccc3F)c2cc1NC(=O)C1CC1 [Example 338, N-(4-(3-(2,6-difluorophenyl)-1-methyl-1H-pyrazol-4-yl)-7-methoxyquinazolin-6-yl)cyclopropanecarboxamide] |
| 0.9 | 1 | 1.4 | CCC(=O)Nc1cc2c(-c3cn(CC(F)F)nc3-c3ccccc3)ncnc2cc1OC [Example 250, N-(4-(1-(2,2-difluoroethyl)-3-phenyl-1H-pyrazol-4-yl)-7-methoxyquinazolin-6-yl)propionamide] |
| 7.9 | 1.8 | 3.5 | COc1cc2ncnc(-c3cn(C)nc3-c3ccccc3)c2cc1NC(=O)N1CCOC(C)(C)C1 [Example 184, N-[7-methoxy-4-(1-methyl-3-phenyl-1H-pyrazol-4-yl)quinazolin-6-yl]-2,2-dimethylmorpholine-4-carboxamide] |
